In EP4745135A1 (Gluetacs Therapeutics (Shanghai) Co., Ltd., priority 2023, dated 2025):

Assays:
CK1α = target: T1, CK1α (Homo sapiens, UniProt P48729+Q96SW2); test: Western blot, degradation of substrate protein in hPBMCs; format: cell-based
T1 construct: effects of the compounds of the present disclosure on the expression of target proteins in cells; endogenous in cells; host or cells: human PBMCs (Milecell Biotechnologies)
Procedure: (§1) Conventional Western blot assay was performed to evaluate the effects of the compounds of the present disclosure on the expression of target proteins in cells. • (1) Cell Seeding and Protein Harvesting: Human peripheral blood mononuclear cells (hPBMCs) at a density of 1×10^6 cells/mL were thawed according to the PBMC Recovery Protocol (Milecell Biotechnologies Inc, Shanghai). […] After 24 hours of compounds treatment, cells were harvested and lysed in RIPA protein lysate containing protease inhibitors on ice for 30 min, followed by centrifugation. The supernatant was aspirated as the extracted total cell protein. The protein concentration of the supernatant was determined using the conventional BCA (Bicinchoninic Acid) assay. • (2) To the collected supernatant, 5X SDS sample loading buffer was added, followed by denaturation at 95°C for 5 minutes. The denatured samples were then separated by SDS-PAGE electrophoresis on a polyacrylamide gel, transferred onto a nitrocellulose membrane (0.45 µm NC membrane), blocked with blocking buffer at room temperature for 1 hour, and subjected to antibody incubation and development procedures according to the antibody manufacturer's instructions (Cell Signaling Technology Company).
(§2) Half-Maximal Degradation Concentration value (the drug concentration required for degrading proteins by 50%, abbreviated as DC50) reads method: comparing the grayscale values of Western blot bands from drug-treated samples with those from blank DMSO-treated controls, and identifying the drug concentration range at which the grayscale value is half that of the DMSO-treated control bands.
(§3) DC50 values can be calculated using ImageJ software to measure grayscale values of Western blot bands from drug-treated samples. The concentration-response curve is fitted to estimate the drug concentration corresponding to half the grayscale value.
(§4) Target protein remaining (%) refers to the percentage of target protein remaining in cells after treatment with protein degrader compounds.
(§5) Calculation method for target protein remaining (%): Use ImageJ software to measure grayscale values of Western blot bands from drug (protein degrader)-treated samples. The grayscale value of drug-treated bands is divided by that of internal control protein bands, and the resulting quotient is normalized to obtain the relative percentage of remaining target protein after protein degrader treatment.
(§6) Target protein degradation rate (%) = 1−target protein remaining (%). [formula]

IKZF2 = target: T2, IKZF2 (Homo sapiens, UniProt Q96SW2+Q9UKS7); test: as above; format: cell-based
T2 construct: effects of the compounds of the present disclosure on the expression of target proteins in cells; endogenous in cells; host or cells: human PBMCs (Milecell Biotechnologies)
T2 sequence (Q9UKS7 whole entry): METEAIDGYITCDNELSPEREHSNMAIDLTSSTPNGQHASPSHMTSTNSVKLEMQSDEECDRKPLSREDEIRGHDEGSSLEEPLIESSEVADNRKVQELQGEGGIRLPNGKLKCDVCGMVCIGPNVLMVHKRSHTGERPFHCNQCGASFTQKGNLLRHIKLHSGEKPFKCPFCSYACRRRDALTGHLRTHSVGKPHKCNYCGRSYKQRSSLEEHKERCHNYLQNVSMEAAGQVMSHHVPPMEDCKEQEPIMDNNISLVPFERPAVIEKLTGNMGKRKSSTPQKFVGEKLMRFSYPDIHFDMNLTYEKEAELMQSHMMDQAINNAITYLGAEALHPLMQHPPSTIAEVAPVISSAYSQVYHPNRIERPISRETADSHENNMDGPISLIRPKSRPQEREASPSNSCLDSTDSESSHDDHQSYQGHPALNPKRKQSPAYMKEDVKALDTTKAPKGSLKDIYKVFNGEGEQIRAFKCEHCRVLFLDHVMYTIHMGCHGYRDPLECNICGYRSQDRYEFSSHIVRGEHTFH
T2 sequence (Q96SW2 whole entry): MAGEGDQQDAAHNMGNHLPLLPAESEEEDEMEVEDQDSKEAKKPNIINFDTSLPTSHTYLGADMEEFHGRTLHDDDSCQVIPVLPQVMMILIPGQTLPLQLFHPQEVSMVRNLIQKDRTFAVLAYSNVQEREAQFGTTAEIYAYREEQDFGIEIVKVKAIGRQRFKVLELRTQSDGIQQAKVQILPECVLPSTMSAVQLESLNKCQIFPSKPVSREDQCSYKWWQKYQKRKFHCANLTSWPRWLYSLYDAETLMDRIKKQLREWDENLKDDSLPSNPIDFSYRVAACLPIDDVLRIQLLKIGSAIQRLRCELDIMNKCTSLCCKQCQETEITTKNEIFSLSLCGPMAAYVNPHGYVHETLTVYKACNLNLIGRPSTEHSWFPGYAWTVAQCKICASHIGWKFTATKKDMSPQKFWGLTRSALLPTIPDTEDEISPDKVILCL
T2 sequence (Q16531 whole entry partner): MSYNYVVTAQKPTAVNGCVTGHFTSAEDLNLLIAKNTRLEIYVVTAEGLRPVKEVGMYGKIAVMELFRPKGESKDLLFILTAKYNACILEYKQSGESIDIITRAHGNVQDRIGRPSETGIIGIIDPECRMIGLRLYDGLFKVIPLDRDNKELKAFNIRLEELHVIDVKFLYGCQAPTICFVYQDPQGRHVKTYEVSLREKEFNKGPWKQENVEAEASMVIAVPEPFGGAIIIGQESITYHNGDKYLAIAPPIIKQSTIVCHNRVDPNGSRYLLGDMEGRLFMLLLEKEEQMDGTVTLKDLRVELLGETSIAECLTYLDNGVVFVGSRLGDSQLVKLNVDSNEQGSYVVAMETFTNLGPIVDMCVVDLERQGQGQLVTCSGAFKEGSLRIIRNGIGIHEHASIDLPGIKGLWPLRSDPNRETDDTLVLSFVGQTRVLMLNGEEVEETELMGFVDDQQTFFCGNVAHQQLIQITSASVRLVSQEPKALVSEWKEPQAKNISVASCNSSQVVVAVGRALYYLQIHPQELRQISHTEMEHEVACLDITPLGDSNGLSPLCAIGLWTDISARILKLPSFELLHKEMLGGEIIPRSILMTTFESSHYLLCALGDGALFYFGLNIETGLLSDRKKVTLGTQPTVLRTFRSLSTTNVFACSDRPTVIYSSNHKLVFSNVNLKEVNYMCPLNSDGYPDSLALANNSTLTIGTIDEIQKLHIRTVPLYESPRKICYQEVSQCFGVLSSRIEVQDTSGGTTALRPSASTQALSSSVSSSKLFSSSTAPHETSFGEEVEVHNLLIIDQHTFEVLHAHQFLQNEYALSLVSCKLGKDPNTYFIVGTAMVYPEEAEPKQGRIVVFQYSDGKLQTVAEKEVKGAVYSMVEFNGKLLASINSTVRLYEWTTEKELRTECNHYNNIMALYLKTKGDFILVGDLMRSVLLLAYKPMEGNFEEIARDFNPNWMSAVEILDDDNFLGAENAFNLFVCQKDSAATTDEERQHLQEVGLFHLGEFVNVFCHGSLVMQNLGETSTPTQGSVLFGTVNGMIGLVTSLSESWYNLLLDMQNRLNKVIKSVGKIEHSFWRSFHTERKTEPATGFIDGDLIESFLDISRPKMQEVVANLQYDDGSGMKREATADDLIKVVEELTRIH
Procedure: as §1, §2, §3, §4, §5, §6

WEE1 = target: T3, WEE1 (Homo sapiens, UniProt P30291+Q96SW2); test: as above; format: cell-based
T3 construct: effects of the compounds of the present disclosure on the expression of target proteins in cells; endogenous in cells; host or cells: human PBMCs (Milecell Biotechnologies)
T3 sequence (P30291 whole entry): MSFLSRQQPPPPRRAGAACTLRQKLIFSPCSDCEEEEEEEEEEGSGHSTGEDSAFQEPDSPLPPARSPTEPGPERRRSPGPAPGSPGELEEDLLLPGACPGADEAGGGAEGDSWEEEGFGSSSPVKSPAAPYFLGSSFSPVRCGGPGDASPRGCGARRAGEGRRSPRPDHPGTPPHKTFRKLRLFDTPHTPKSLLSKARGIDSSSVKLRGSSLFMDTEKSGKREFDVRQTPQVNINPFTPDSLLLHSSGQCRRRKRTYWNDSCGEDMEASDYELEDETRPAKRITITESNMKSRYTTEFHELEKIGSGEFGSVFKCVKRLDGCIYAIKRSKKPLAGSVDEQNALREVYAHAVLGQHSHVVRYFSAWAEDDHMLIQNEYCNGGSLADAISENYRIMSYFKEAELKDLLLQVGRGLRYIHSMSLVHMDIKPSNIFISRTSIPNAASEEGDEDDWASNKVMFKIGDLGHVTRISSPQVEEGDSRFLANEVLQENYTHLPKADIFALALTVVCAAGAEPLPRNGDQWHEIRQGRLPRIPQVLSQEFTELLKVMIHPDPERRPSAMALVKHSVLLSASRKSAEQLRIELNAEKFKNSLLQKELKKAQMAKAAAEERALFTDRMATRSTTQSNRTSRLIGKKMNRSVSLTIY
T3 sequence (Q96SW2 whole entry): as the sequence (Q96SW2 whole entry) above
T3 sequence (Q16531 whole entry partner): as the sequence (Q16531 whole entry partner) above
Procedure: as §1, §2, §3, §4, §5, §6

IKZF3 = target: T4, IKZF3 (Homo sapiens, UniProt Q96SW2+Q9UKT9); test: as above; format: cell-based
T4 construct: effects of the compounds of the present disclosure on the expression of target proteins in cells; endogenous in cells; host or cells: human PBMCs (Milecell Biotechnologies)
T4 sequence (Q9UKT9 whole entry): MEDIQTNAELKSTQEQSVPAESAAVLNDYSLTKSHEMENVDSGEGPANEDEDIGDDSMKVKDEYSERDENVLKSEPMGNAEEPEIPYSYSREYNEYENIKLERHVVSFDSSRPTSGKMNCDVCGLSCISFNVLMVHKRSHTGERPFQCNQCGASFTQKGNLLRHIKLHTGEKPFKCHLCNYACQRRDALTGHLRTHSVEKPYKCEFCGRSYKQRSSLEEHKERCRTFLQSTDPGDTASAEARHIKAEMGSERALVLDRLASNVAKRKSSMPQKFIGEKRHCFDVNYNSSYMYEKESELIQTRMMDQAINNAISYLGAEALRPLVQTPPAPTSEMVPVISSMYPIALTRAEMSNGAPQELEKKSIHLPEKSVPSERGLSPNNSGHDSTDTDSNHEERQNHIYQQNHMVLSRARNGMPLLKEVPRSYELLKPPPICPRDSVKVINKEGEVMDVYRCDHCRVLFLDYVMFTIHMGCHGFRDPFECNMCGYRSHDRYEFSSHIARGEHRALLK
T4 sequence (Q96SW2 whole entry): as the sequence (Q96SW2 whole entry) above
T4 sequence (Q16531 whole entry partner): as the sequence (Q16531 whole entry partner) above
Procedure: as §1, §2, §3, §4, §5, §6

IKZF1 = target: T5, IKZF1 (Homo sapiens, UniProt Q13422+Q96SW2); test: as above; format: cell-based
T5 construct: effects of the compounds of the present disclosure on the expression of target proteins in cells; endogenous in cells; host or cells: human PBMCs (Milecell Biotechnologies)
T5 sequence (Q13422 whole entry): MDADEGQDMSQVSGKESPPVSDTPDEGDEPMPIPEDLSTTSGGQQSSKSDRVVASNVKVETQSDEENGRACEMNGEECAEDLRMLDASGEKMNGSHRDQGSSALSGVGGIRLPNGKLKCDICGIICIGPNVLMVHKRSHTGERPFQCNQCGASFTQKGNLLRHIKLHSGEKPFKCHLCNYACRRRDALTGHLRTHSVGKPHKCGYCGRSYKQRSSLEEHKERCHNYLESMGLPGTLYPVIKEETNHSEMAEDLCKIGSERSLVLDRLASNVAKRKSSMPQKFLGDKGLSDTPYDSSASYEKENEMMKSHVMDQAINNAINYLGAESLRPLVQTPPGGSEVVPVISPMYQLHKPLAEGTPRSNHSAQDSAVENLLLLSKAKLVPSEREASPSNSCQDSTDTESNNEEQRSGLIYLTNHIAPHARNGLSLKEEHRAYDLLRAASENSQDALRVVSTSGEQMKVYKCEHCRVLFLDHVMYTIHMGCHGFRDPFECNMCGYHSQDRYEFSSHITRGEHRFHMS
T5 sequence (Q96SW2 whole entry): as the sequence (Q96SW2 whole entry) above
T5 sequence (Q16531 whole entry partner): as the sequence (Q16531 whole entry partner) above
Procedure: as §1, §2, §3, §4, §5, §6

GSPT1 = test: as above; format: cell-based, Human
Procedure: as §1, §2, §3, §4, §5, §6

[1] = target: T6, human Cereblon WT GST-tagged protein (Homo sapiens, UniProt Q96SW2); test: CRBN-binding affinity, HTRF (CEREBLON BINDING kit); conditions: for IC50: CRBN binding, HTRF, 3 hours at room temperature, read-out: HTRF IC50; for inhibition at 0.5 µM: read-out: Inhibition Rate at 0.5 µM (%); for inhibition at 2 µM: read-out: Inhibition Rate at 2 µM (%)
T6 construct: purchased CISBIO 64BDCRBNPEH
T6 sequence (Q96SW2 whole entry): as the sequence (Q96SW2 whole entry) above

[2] = 24 hours treatment, compounds at 50 nM and 500 nM (concentration behind the class not stated)
[3] = Western blot, 24 hours of compound treatment, compounds tested at 50 nM and 500 nM (concentration for the table not stated)

T1 sequence (P48729 whole entry): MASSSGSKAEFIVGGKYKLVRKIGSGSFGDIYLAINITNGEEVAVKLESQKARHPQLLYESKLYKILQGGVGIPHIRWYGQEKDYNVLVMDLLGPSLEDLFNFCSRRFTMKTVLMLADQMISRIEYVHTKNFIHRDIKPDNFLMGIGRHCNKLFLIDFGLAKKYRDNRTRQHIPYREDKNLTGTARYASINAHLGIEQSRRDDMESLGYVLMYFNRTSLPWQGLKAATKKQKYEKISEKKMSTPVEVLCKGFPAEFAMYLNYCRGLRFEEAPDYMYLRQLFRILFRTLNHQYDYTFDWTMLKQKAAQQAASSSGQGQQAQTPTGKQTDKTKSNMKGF
T1 sequence (Q96SW2 whole entry): as the sequence (Q96SW2 whole entry) above
T1 sequence (Q16531 whole entry partner): as the sequence (Q16531 whole entry partner) above

Row | Structure (SMILES) | CK1α substrate protein remaining % (CK1α; [2]) | IKZF2 substrate protein remaining % (IKZF2; [2]) | Wee1 substrate protein remaining % (WEE1; [2]) | IKZF3 substrate protein remaining % (IKZF3; [2]) | IKZF 1 substrate protein remaining % (IKZF1; [2]) | GSPT1 substrate protein remaining % (GSPT1; [2]) | IC50 [1] | CK1α substrate protein remaining % (CK1α; [3]) | IKZF2 substrate protein remaining % (IKZF2; [3]) | Wee1 substrate protein remaining % (WEE1; [3]) | IKZF3 substrate protein remaining % (IKZF3; [3]) | IKZF 1 substrate protein remaining % (IKZF1; [3]) | GSPT1 substrate protein remaining % (GSPT1; [3]) | inhibition at 0.5 µM [1] | inhibition at 2 µM [1]
1 | O=C1CCC(N2Cc3ccc(CO)cc3C2=S)C(=O)N1 (stereo not shown) [GT-05566, 3-(6-(hydroxymethyl)-1-thioxoisoindolin-2-yl)piperidine-2,6-dione] | B (80%< substrate protein remaining %≤ 100%) | A (0% ≤ substrate protein remaining % ≤ 80%) | A (0% ≤ substrate protein remaining % ≤ 80%) | A (0% ≤ substrate protein remaining % ≤ 80%) | A (0% ≤ substrate protein remaining % ≤ 80%) | B (80%< substrate protein remaining %≤ 100%) | 100 to 500 nM |  |  |  |  |  |  |  | 
2 | O=C1CCC(N2Cc3cc(CN4CCN(c5nccc(F)c5F)CC4)ccc3C2=S)C(=O)N1 (stereo not shown) [GT-09235, 3-(5-((4-(3,4-difluoropyridin-2-yl)piperazin-1-yl)methyl)-1-thioxoisoindolin-2-yl)piperidine-2,6-dione] |  |  |  |  |  |  |  | A (0% ≤ substrate protein remaining % ≤ 80%) | A (0% ≤ substrate protein remaining % ≤ 80%) | B (80%< substrate protein remaining %≤ 100%) | A (0% ≤ substrate protein remaining % ≤ 80%) | B (80%< substrate protein remaining %≤ 100%) | A (0% ≤ substrate protein remaining % ≤ 80%) | 60 to 80% | 80 to 100%
3 | O=C1CCC(N2Cc3cc(CN4CCN(c5ccnc(Br)c5F)CC4)ccc3C2=S)C(=O)N1 (stereo not shown) [GT-09241, 3-(5-((4-(2-bromo-3-fluoropyridin-4-yl)piperazin-1-yl)methyl)-1-thioxoisoindolin-2-yl)piperidine-2,6-dione] | B (80%< substrate protein remaining %≤ 100%) | B (80%< substrate protein remaining %≤ 100%) | B (80%< substrate protein remaining %≤ 100%) | B (80%< substrate protein remaining %≤ 100%) | B (80%< substrate protein remaining %≤ 100%) | A (0% ≤ substrate protein remaining % ≤ 80%) |  |  |  |  |  |  |  | 60 to 80% | 80 to 100%
4 | O=C1CCC(N2Cc3cc(CN4CC=C(c5ccnc(F)c5F)CC4)ccc3C2=S)C(=O)N1 (stereo not shown) [GT-08474, 3-(5-((2',3'-difluoro-3,6-dihydro-[4,4'-bipyridin]-1(2H)-yl)methyl)-1-thioxoisoindolin-2-yl)piperidine-2,6-dione] |  |  |  |  |  |  |  | B (80%< substrate protein remaining %≤ 100%) | B (80%< substrate protein remaining %≤ 100%) | B (80%< substrate protein remaining %≤ 100%) | B (80%< substrate protein remaining %≤ 100%) | B (80%< substrate protein remaining %≤ 100%) | A (0% ≤ substrate protein remaining % ≤ 80%) | 80 to 100% | 80 to 100%
5 | Cc1nc(C2CCN(Cc3ccc4c(c3)CN(C3CCC(=O)NC3=O)C4=S)CC2)c2c3c(sc2n1)CCCC3 (stereo not shown) [GT-09310, 3-(5-((4-(2-methyl-5,6,7,8-tetrahydrobenzo[4,5]thieno[2,3-d]pyrimidin-4-yl)piperidin-1-yl)methyl)-1-thioxoisoindolin-2-yl)piperidine-2,6-dione] | B (80%< substrate protein remaining %≤ 100%) | B (80%< substrate protein remaining %≤ 100%) | B (80%< substrate protein remaining %≤ 100%) | A (0% ≤ substrate protein remaining % ≤ 80%) | B (80%< substrate protein remaining %≤ 100%) | A (0% ≤ substrate protein remaining % ≤ 80%) |  |  |  |  |  |  |  | 53 to 60% | 80 to 100%
6 | O=C1CCC(N2Cc3c(CN4CCN(c5ncc(C(F)(F)F)cc5Cl)CC4)cccc3C2=S)C(=O)N1 (stereo not shown) [GT-08705, 3-(4-((4-(3-chloro-5-(trifluoromethyl)pyridin-2-yl)piperazin-1-yl)methyl)-1-thioxoisoindolin-2-yl)piperidine-2,6-dione] |  |  |  |  |  |  |  | B (80%< substrate protein remaining %≤ 100%) | B (80%< substrate protein remaining %≤ 100%) | A (0% ≤ substrate protein remaining % ≤ 80%) | B (80%< substrate protein remaining %≤ 100%) | B (80%< substrate protein remaining %≤ 100%) | B (80%< substrate protein remaining %≤ 100%) | 30 to 40% | 60 to 80%
7 | O=C1CCC(N2Cc3cc(CN4CCC(c5ccco5)CC4)ccc3C2=S)C(=O)N1 (stereo not shown) [GT-05148, 3-(5-((4-(furan-2-yl)piperidin-1-yl)methyl)-1-thioxoisoindolin-2-yl)piperidine-2,6-dione] |  |  |  |  |  |  | 100 to 500 nM | B (80%< substrate protein remaining %≤ 100%) | B (80%< substrate protein remaining %≤ 100%) | B (80%< substrate protein remaining %≤ 100%) | B (80%< substrate protein remaining %≤ 100%) | B (80%< substrate protein remaining %≤ 100%) | A (0% ≤ substrate protein remaining % ≤ 80%) |  | 
8 | CC1(C)CCC(CN2CCN(Cc3ccc4c(c3)CN(C3CCC(=O)NC3=O)C4=S)CC2)=C(c2ccc(Cl)cc2)C1 (stereo not shown) [GT-05151, 3-(5-((4-((4'-chloro-5,5-dimethyl-3,4,5,6-tetrahydro-[1,1'-biphenyl]-2-yl)methyl)piperazin-1-yl)methyl)-1-thioxoisoindolin-2-yl)piperidine-2,6-dione] |  |  |  |  |  |  | 500 to 1000 nM | B (80%< substrate protein remaining %≤ 100%) | A (0% ≤ substrate protein remaining % ≤ 80%) | A (0% ≤ substrate protein remaining % ≤ 80%) | A (0% ≤ substrate protein remaining % ≤ 80%) | A (0% ≤ substrate protein remaining % ≤ 80%) | A (0% ≤ substrate protein remaining % ≤ 80%) |  | 
